Tested on: PD-L1 in C33A cells
Experiment: Western blotting of PD-L1 level in C33A cells
Format: cell-based, human
Settings: 4 h treatment, mean of 3 independent experiments, read-out: IC50 of PD-L1 decrease
Protocol: C33A and HeLa cells were plated in 6-well plates and treated with the stapled peptide at the indicated concentrations for the specified time, followed by lysis in RIPA buffer containing protease inhibitor. Protein samples were prepared using a BCA Protein Assay Kit (Beyotime). A total of 50 µg of protein were added per lane, separated by 10% SDS-PAGE, and subsequently transferred onto polyvinylidene fluoride (PVDF) membrane. The membrane was blocked with 5% skimmed milk for 2 h at room temperature. Primary antibodies including anti-PD-L1 (Abcam, ab213524) and anti-GAPDH (Abcam, ab9485) antibodies were diluted in primary antibody dilution buffer (Biosharp) and incubated with PVDF membrane at 4°C overnight. Next, the membrane was incubated with goat anti-mouse/anti-rabbit secondary antibodies (Proteintech, SA00001-1, SA00001-2) at room temperature for 1 h. After washing with TBST thrice for 5 min each, the proteins were detected using enhanced chemiluminescence (ECL) reagents (Vazyme) and a ChemiDoc XRS imaging system (Bio-Rad Laboratories).

IC50: 7.79 µM
SMILES: Cc1c(COc2ccc(CN3CCCCC3C(=O)O)cc2Br)cccc1-c1ccccc1 (stereo not shown) [BMS-8]
